Where two headings read alike, the source gives them in different places.
How the values were obtained:
human SSTR3 = human SSTR3 (Homo sapiens (Human), UniProt P32745); experiment: Radioligand binding assay, CHO cell membranes expressing recombinant human SSTR3
Text: (§1) Radioligand Binding Assays
(§2) Method Description for Binding Assays with Human Somatostatin Receptors by Use of CHO Cell Membranes Expressing Recombinant Human SSTR1 or Human SSTR2 or Human SSTR3 or Human SSTR4 or Human SSTR5
(§3) Receptor binding assays refer to a technique in which labeled receptor ligands are used to detect binding to a receptor. In competition experiments test compounds, which are not labeled, compete with the binding side of a labeled ligand. The displacement of the labeled ligand by the test compound leads to a decreased signal.
(§4) For the binding experiments 200 μL of membrane homogenate from one of the following protein amounts is used: hSSTR1 (40 μg/well); hSSTR2 (25 μg/well); hSSTR3 (1.5 μg/well); hSSTR4 (0.5 μg/well); hSSTR5 (25 μg/well). […] The incubation is terminated by filtration with ice cold NaCl 0.9% through polyethyleneimine treated (0.3%) GF/B glass fiber filters using a cell harvester. The protein-bound radioactivity is measured in a suitable reader. The non-specific binding is defined as radioactivity bound in the presence of 1 μM Somatostatin-14 during the incubation period.
(§5) The analysis of the concentration-binding curves is performed by computer-assisted nonlinear least square curve fitting method using the model of one receptor binding site.
(§6) Selectivity data was obtained with the aid of the above described radioligand binding assays.

human SSTR1 = human SSTR1 (Homo sapiens (Human), UniProt P30872); experiment: Radioligand binding assay, CHO cell membranes expressing recombinant human SSTR1
Chain of human SSTR1 (P30872 whole entry): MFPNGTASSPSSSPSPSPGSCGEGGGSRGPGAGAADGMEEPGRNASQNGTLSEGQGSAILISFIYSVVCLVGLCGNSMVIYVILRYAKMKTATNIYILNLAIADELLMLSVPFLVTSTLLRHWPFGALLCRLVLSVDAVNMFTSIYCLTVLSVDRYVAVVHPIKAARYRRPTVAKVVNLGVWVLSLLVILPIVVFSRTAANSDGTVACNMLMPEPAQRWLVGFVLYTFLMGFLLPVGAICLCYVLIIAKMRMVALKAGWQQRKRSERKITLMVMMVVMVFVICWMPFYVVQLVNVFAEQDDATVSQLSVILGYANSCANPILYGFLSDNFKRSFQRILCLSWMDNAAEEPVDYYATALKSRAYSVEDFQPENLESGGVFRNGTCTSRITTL
Text: as §1, §2, §3, §4, §5, §6

human SSTR5 = human SSTR5 (Homo sapiens (Human), UniProt P35346); experiment: Radioligand binding assay, CHO cell membranes expressing recombinant human SSTR5
Chain of human SSTR5 (P35346 whole entry): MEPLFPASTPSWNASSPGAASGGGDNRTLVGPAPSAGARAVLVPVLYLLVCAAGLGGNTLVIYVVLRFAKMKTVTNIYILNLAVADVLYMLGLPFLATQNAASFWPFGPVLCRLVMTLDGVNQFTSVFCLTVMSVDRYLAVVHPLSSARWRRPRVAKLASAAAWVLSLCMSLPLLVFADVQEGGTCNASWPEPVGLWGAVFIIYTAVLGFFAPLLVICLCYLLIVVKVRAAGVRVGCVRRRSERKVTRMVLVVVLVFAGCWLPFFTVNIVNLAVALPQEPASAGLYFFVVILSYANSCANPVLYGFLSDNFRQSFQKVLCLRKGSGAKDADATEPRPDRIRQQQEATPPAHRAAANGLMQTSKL
Text: as §1, §2, §3, §4, §5, §6

human SSTR4 = human SSTR4 (Homo sapiens (Human), UniProt P31391); experiment: Radioligand binding assay, CHO cell membranes expressing recombinant human SSTR4
Chain of human SSTR4 (P31391 whole entry): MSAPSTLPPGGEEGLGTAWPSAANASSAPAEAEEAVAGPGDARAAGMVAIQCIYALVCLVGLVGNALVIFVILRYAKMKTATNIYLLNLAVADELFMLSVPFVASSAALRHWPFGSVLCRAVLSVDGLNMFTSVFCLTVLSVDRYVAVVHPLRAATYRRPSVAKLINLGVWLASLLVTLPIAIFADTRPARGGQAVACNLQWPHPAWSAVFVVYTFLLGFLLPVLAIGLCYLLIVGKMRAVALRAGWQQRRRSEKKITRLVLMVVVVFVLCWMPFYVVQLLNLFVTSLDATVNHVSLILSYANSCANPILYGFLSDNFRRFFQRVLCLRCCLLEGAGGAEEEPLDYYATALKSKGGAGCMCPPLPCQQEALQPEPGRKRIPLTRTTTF
Text: as §1, §2, §3, §4, §5, §6

human SSTR2 = human SSTR2 (Homo sapiens (Human), UniProt P30874); experiment: Radioligand binding assay, CHO cell membranes expressing recombinant human SSTR2
Chain of human SSTR2 (P30874 whole entry): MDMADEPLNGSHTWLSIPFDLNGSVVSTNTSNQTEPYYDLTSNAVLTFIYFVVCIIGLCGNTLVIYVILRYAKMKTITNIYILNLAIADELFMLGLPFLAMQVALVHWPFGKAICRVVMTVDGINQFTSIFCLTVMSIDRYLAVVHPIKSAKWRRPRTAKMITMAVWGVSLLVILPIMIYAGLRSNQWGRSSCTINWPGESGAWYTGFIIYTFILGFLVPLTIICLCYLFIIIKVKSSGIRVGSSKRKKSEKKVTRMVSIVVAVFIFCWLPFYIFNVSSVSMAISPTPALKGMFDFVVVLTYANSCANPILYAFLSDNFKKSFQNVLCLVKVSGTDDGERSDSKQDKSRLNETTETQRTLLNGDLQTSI
Text: as §1, §2, §3, §4, §5, §6

[1] = Metabolic stability in pooled human liver microsomes (half-life); assay type: in vitro ADME; settings: 1 μM test compound; for half-life at 1 μM: pooled human liver microsomes, pH 7.6, 37° C., read-out: Half-life t1/2; for Half-life t1/2: 37° C.
Description: The metabolic stability of the compounds according to the invention may be investigated as follows:
The metabolic degradation of the test compound is assayed at 37° C. with pooled human liver microsomes. The final incubation volume of 100 μl per time point contains TRIS buffer pH 7.6 at room temperature (0.1 M), magnesium chloride (5 mM), microsomal protein (1 mg/mL) and the test compound at a final concentration of 1 μM. Following a short preincubation period at 37° C., the reactions are initiated by addition of beta-nicotinamide adenine dinucleotide phosphate, reduced form (NADPH, 1 mM), and terminated by transferring an aliquot into solvent after different time points. After centrifugation (10000 g, 5 min), an aliquot of the supernatant is assayed by LC-MS/MS for the amount of parent compound. The half-life is determined by the slope of the semi-logarithmic plot of the concentration-time profile.

[2] = biological target: human Somatostatin 4 receptor (SSTR4) (Homo sapiens (Human), UniProt P31391); experiment: cAMP assay with human somatostatin 4 receptor (hSSTR4 expressing H4 cells); assay type: cell-based
Chain of human Somatostatin 4 receptor (SSTR4) (P31391 whole entry): as the sequence (P31391 whole entry) above

[3] = cAMP assay, read-out: SSTR4 agonism EC50

Chain of human SSTR3 (P32745 whole entry): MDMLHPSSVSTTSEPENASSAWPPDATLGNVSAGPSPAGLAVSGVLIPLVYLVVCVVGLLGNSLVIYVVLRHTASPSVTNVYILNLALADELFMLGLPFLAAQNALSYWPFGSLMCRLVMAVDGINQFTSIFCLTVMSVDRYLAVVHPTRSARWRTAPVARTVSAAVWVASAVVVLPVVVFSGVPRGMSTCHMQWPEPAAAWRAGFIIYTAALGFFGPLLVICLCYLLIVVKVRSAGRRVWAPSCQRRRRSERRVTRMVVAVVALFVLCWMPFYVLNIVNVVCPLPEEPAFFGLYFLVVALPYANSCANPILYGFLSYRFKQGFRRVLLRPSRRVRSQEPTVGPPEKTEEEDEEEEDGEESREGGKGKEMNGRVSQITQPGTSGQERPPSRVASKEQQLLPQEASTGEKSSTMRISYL

Structure (SMILES) | Ki (human SSTR3) [µM] | Ki (human SSTR1) [µM] | Ki (human SSTR5) [µM] | Ki (human SSTR4) [µM] | Ki (human SSTR2) [µM] | half-life at 1 μM [1] [h] | EC50 [2, 3] [µM] | EC50 ([2]; SSTR4 agonism EC50, cAMP assay) [µM] | Half-life t1/2 [1] [h]
CC(C)(NC(=O)[C@H]1[C@@H]2CNC[C@@H]21)c1nc2ccc(Cl)cc2[nH]1.Cl [Example 11] | > 8.58 | > 8.91 | > 9.85 | 0.106 | > 9.59 | > 2.17 | 0.0081 | – | –
CC(C)(NC(=O)[C@H]1[C@@H]2CNC[C@@H]21)c1ccnc2ccccc12.Cl [Example 21] | > 8.58 | > 8.91 | > 9.85 | 0.0108 | > 9.59 | > 2.17 | 0.0007 | – | –
Cc1cc2ccccc2c(C(C)(C)NC(=O)[C@H]2[C@@H]3CNC[C@@H]32)n1.Cl [Example 22] | – | 0.848 | > 9.85 | 0.0037 | > 9.59 | > 2.17 | 0.0004 | – | –
CC(C)(NC(=O)[C@H]1[C@@H]2CNC[C@@H]21)c1nccc2ccccc12.Cl [Example 24] | > 8.65 | 2.82 | > 9.86 | 0.0029 | > 9.61 | > 2.17 | – | 0.0005 | –
Cc1cccnc1C(C)(C)NC(=O)[C@H]1[C@@H]2CNC[C@@H]21.Cl.Cl [Example 25] | > 8.64 | > 8.96 | > 9.86 | 0.114 | > 9.61 | > 2.17 | – | 0.0148 | –
Cc1ccccc1OCC(C)(C)NC(=O)[C@H]1[C@@H]2CNC[C@@H]21.Cl [Example 40] | > 8.63 | > 9.76 | > 9.85 | 0.0371 | > 9.6 | > 2.17 | 0.005 | – | –
Cc1cccnc1OCC(C)(C)NC(=O)[C@H]1[C@@H]2CNC[C@@H]21 [Example 47] | > 8.62 | > 9.15 | > 9.85 | 0.0399 | > 9.6 | > 2.17 | 0.0037 | – | –
Cn1nc(C(C)(C)NC(=O)[C@H]2[C@@H]3CNC[C@@H]32)c2ccccc21 [Example 49] | > 8.62 | 4.54 | > 9.86 | 0.0045 | > 9.6 | > 2.17 | 0.0004 | – | –
CC(C)(COc1nccc2ccccc12)NC(=O)[C@H]1[C@@H]2CNC[C@@H]21 [Example 56] | > 8.63 | 3.46 | > 9.85 | 0.1 | > 9.61 | > 2.17 | 0.0055 | – | –
CC(C)(COc1cnccc1C(F)(F)F)NC(=O)[C@H]1[C@@H]2CNC[C@@H]21 [Example 63] | > 7.07 | > 7.51 | > 8.08 | 0.0689 | > 7.88 | > 2.17 | – | 0.0041 | –
Cc1cc2cccnc2c(C(C)(C)NC(=O)[C@H]2[C@@H]3CNC[C@@H]32)n1 [Example 78] | > 8.71 | 6.64 | > 9.86 | 0.0972 | > 9.63 | > 2.17 | 0.0032 | – | –
Cc1ncc(C(C)(C)NC(=O)[C@H]2[C@@H]3CNC[C@@H]32)c2ccccc12 [Example 80] | > 8.71 | 0.508 | > 9.86 | 0.0012 | > 9.63 | > 2.17 | 0.0003 | – | –
Cc1cccc2c(C(C)(C)NC(=O)[C@H]3[C@@H]4CNC[C@@H]43)n[nH]c12 [Example 93] | > 8.69 | 7.03 | > 9.77 | – | > 9.63 | – | – | – | >2.17
CC(C)(NC(=O)[C@H]1[C@@H]2CNC[C@@H]21)c1n[nH]c2ccccc12 [Example 94] | > 8.69 | > 9.48 | > 9.77 | 0.0159 | > 9.63 | – | – | – | >2.17
CC(C)(NC(=O)[C@H]1[C@@H]2CNC[C@@H]21)c1noc2c(F)cccc12 [Example 101] | > 8.6 | > 9.09 | > 9.85 | 0.0462 | > 9.6 | > 2.17 | 0.0012 | – | –
Cc1cccc2c(C(C)(C)NC(=O)[C@H]3[C@@H]4CNC[C@@H]43)nn(C)c12 [Example 107] | > 8.6 | 4.3 | > 9.85 | – | > 9.6 | > 2.17 | – | – | –
Cc1cccn2c(C(C)(C)NC(=O)[C@H]3[C@@H]4CNC[C@@H]43)ncc12.Cl [Example 126] | > 8.71 | 6.63 | > 9.86 | 0.003 | > 9.63 | > 2.17 | – | 0.0004 | –
Cc1cccn2c(C(C)(C)NC(=O)[C@H]3[C@@H]4CNC[C@@H]43)nc(C3CC3)c12 [Example 128] | 6.18 | 1.1 | > 9.86 | 0.0076 | > 9.63 | > 2.17 | 0.0004 | – | –
Cc1nc(C(C)(C)NC(=O)[C@H]2[C@@H]3CNC[C@@H]32)c2ccccc2n1 [Example 138] | > 8.71 | 7.36 | > 9.86 | 0.0703 | > 9.63 | > 2.17 | 0.0043 | – | –
Cc1nc(C(C)(C)NC(=O)[C@H]2[C@@H]3CNC[C@@H]32)c2cccc(C)c2n1 [Example 148] | > 8.69 | 6.67 | > 9.77 | 0.0323 | > 9.63 | > 2.17 | – | 0.0011 | –
CC(C)(NC(=O)[C@H]1[C@@H]2CNC[C@@H]21)c1cnn2ccccc12 [Example 167] | – | – | – | – | – | > 2.17 | 0.0049 | – | –
CC(C)(NC(=O)[C@H]1[C@@H]2CNC[C@@H]21)c1cnn2c1CCCC2 [Example 168] | – | – | – | – | – | > 2.17 | 0.0473 | – | –

From patent publication US9789082B2, “Somatostatin receptor subtype 4 (SSTR4) agonists” (Centrexion Therapeutics Corporation, priority 2013, dated 2017)
